Experimental data published in the supplement of paper PMC11208160.

Experiment: recombinant barcode read abundance after kanamycin selection (control-corrected) (log10(CPM+1)); higher = more efficient recombination; sequences stand for … in AGTGCAGAGAAAATCGGCCAGTTTTCTCTGCCTGCAGTCCGCATGCCGT…AGATTTATGCAGCGGACTGCCTTTCTCCCAAAGTGATAAACCGGACAGTATCATGGACCGGTTTTCCCGGTAATCCGTATTTGCAAGGTTGGTTTCACT; site = the 11-nt target
Summary of the method: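 In a pooled screen in E. coli, targets were paired with target-binding loops of the IS621 bridge RNA. Each oligo carried a promoter, a target, a barcode and the first 104 bridge RNA bases driven by J23119, and was Gibson-cloned into a vector holding the remaining 73 bp and a T7-inducible recombinase before co-electroporation with a donor plasmid. Duplicate platings went onto chloramphenicol/ampicillin LB agar as the control or onto chloramphenicol/ampicillin/kanamycin with 0.1 mM IPTG. Recombination efficiency is the averaged, control-corrected count per million of barcodes at recombinant junctions, given as log10(CPM+1).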
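Note: IS621 recombinase and bridge RNA in Escherichia coli cells.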

| Sequence | recombinant barcode read abundance (log10) |
| --- | --- |
| AGGCGTCCTTGGGTTCTAACCTGTTGCCA (site AGGCGTCCTAG) | 0.181 |
| AGGCGTCCTTGGGTTCTAACCTGTTGCCA (site AGGCGTCCTCG) | 0.056 |
| AGGCGTCCTTGGGTTCTAACCTGTTGCCA (site AGGCGTCCTGG) | 0.315 |
| AGGCGTCCTTGGGTTCTAACCTGTTGCCA (site AGGCGTCCTTG) | 0.802 |
| AGGCTCCCTTGGGTTCTAACCTGTTGCCT (site AGACTCCCTAG) | 0.193 |
| AGGCTCCCTTGGGTTCTAACCTGTTGCCT (site AGCCTCCCTAG) | 0.0453 |
| AGGCTCCCTTGGGTTCTAACCTGTTGCCT (site AGGCTCCCTAG) | 0.547 |
| AGGCTCCCTTGGGTTCTAACCTGTTGCCT (site AGTCTCCCTAG) | 0.619 |
| AGGCTGTCTTGGGTTCTAACCTGTTGCCT (site AGGCTGACTAG) | 0.54 |
| AGGCTGTCTTGGGTTCTAACCTGTTGCCT (site AGGCTGCCTAG) | 0.613 |
| AGGCTGTCTTGGGTTCTAACCTGTTGCCT (site AGGCTGGCTAG) | 0.0597 |
| AGGCTGTCTTGGGTTCTAACCTGTTGCCT (site AGGCTGTCTAG) | 1.84 |
| AGGGAAGCTTGGGTTCTAACCTGTTGCCT (site AGGGAAGCTAG) | 0.879 |
| AGGGAAGCTTGGGTTCTAACCTGTTGCCT (site AGGGCAGCTAG) | 0.385 |
| AGGGAAGCTTGGGTTCTAACCTGTTGCCT (site AGGGGAGCTAG) | 0.768 |
| AGGGAAGCTTGGGTTCTAACCTGTTGCCT (site AGGGTAGCTAG) | 0.391 |
| AGGGAATCTTGGGTTCTAACCTGTTGCCT (site AGAGAATCTAG) | 0.759 |
| AGGGAATCTTGGGTTCTAACCTGTTGCCT (site AGCGAATCTAG) | 0.124 |
| AGGGAATCTTGGGTTCTAACCTGTTGCCT (site AGGGAATCTAG) | 1.04 |
| AGGGAATCTTGGGTTCTAACCTGTTGCCT (site AGTGAATCTAG) | 0.182 |

| Sequence | recombinant barcode read abundance (log10) |
| --- | --- |
| AGGGATACTTGGGTTCTAACCTGTTGCGT (site AGGGATACTAC) | 3.32 |
| AGGGATACTTGGGTTCTAACCTGTTGCGT (site ATGGATACTAC) | 1.58 |
| AGGGATACTTGGGTTCTAACCTGTTGCTT (site AGGGAGACTAA) | 0.303 |
| AGGGATACTTGGGTTCTAACCTGTTGCTT (site AGGGATACTAA) | 1.42 |
| AGGGCATCTTGGGTTCTAACCTGTTGCCT (site AGGGCATCTAG) | 0.122 |
| AGGGCATCTTGGGTTCTAACCTGTTGCCT (site AGGGCGTCTCG) | 0.245 |
| AGGGTCGCTTGGGTTCTAACCTGTTGCCT (site AGGGTCGCTAG) | 2.5 |
| AGGGTCGCTTGGGTTCTAACCTGTTGCCT (site CACAGTCCTTA) | 0.344 |
| AGGGTGCCTTGGGTTCTAACCTGTTGCTA (site AGGGTGCCTTA) | 2.11 |
| AGGGTGCCTTGGGTTCTAACCTGTTGCTA (site AGGGTGTCTCA) | 0.106 |
| AGGGTTCCTTGGGTTCTAACCTGTTGCTT (site AGGGTTCCTAA) | 2.05 |
| AGGGTTCCTTGGGTTCTAACCTGTTGCTT (site TCATGGGCTCT) | 0.0235 |
| AGGTAGACTTGGGTTCTAACCTGTTGCCA (site AGGAAGACTTG) | 0.0263 |
| AGGTAGACTTGGGTTCTAACCTGTTGCCA (site AGGCAGACTTG) | 0.583 |
| AGGTAGACTTGGGTTCTAACCTGTTGCCA (site AGGGAGACTTG) | 0.179 |
| AGGTAGACTTGGGTTCTAACCTGTTGCCA (site AGGTAGACTTG) | 1.5 |
| AGGTCACCTTGGGTTCTAACCTGTTGCGT (site AGGTCACCTAA) | 0.276 |
| AGGTCACCTTGGGTTCTAACCTGTTGCGT (site AGGTCACCTAC) | 2.82 |
| AGGTCACCTTGGGTTCTAACCTGTTGCGT (site AGGTCACCTAG) | 0.536 |
| AGGTCACCTTGGGTTCTAACCTGTTGCGT (site AGGTCACCTAT) | 1.08 |

| Sequence | recombinant barcode read abundance (log10) |
| --- | --- |
| AGGTCACCTTGGGTTCTAACCTGTTGCTT (site AGGTCACCTAA) | 0.941 |
| AGGTCACCTTGGGTTCTAACCTGTTGCTT (site AGGTCACCTAC) | 0.0772 |
| AGGTCACCTTGGGTTCTAACCTGTTGCTT (site AGGTCACCTAG) | 0.914 |
| AGGTCACCTTGGGTTCTAACCTGTTGCTT (site AGGTCACCTAT) | 1.24 |
| AGGTCCTCTTGGGTTCTAACCTGTTGCGT (site AGGTCCTCTAA) | 0.295 |
| AGGTCCTCTTGGGTTCTAACCTGTTGCGT (site AGGTCCTCTAC) | 2.67 |
| AGGTCCTCTTGGGTTCTAACCTGTTGCGT (site AGGTCCTCTAG) | 0.73 |
| AGGTCCTCTTGGGTTCTAACCTGTTGCGT (site AGGTCCTCTAT) | 1.71 |
| AGGTCTGCTTGGGTTCTAACCTGTTGCCT (site AGGTATGCTAG) | 0.321 |
| AGGTCTGCTTGGGTTCTAACCTGTTGCCT (site AGGTCTGCTAG) | 0.58 |
| AGGTCTGCTTGGGTTCTAACCTGTTGCCT (site AGGTGTGCTAG) | 0.12 |
| AGGTCTGCTTGGGTTCTAACCTGTTGCCT (site AGGTTTGCTAG) | 0.0282 |
| AGGTGTGCTTGGGTTCTAACCTGTTGCCT (site AGGTATGCTAG) | 0.289 |
| AGGTGTGCTTGGGTTCTAACCTGTTGCCT (site AGGTCTGCTAG) | 0.123 |
| AGGTGTGCTTGGGTTCTAACCTGTTGCCT (site AGGTGTGCTAG) | 1.19 |
| AGGTGTGCTTGGGTTCTAACCTGTTGCCT (site AGGTTTGCTAG) | 0.502 |
| AGGTTCCCTTGGGTTCTAACCTGTTGCTA (site AGGTTCCCTAA) | 0.0211 |
| AGGTTCCCTTGGGTTCTAACCTGTTGCTA (site AGGTTCCCTCA) | 0.0107 |
| AGGTTCCCTTGGGTTCTAACCTGTTGCTA (site AGGTTCCCTGA) | 0.0194 |
